Experimental data published in publication PMC3985517, “Abscisic acid dynamics in roots detected with genetically encoded FRET sensors” (eLife, 2014).
Like-named read-outs stand apart in the source and are kept apart here.

Assays:
ABACUS1-2µ = assay type: biochemical, Arabidopsis; settings: Figure 3B-E
Arabidopsis roots [1] = assay: ABACUS1 responses in roots perfused with ABA in the RootChip16; assay type: in vivo
Experimental: The RootChip16 device was used as described in detail previously for the RootChip ([Grossmann et al., 2011], [2012]). Briefly, the device was sterilized by UV light exposure, immersed in liquid growth media (¼ × MS salts, 1.28 mM MES pH 5.7 supplemented with B vitamins at final concentrations of niacin 2.3 µM, thiamine 1.5 µM, pyridoxin 1.2 µM and myo-inositol 0.3 µM), and air in the root observation chambers was removed by applying suction at the solution outlets using a microliter pipette. 5-day old Arabidopsis seedlings, germinated on 5 mm long cut 10 µl pipette tips filled with solidified growth medium (½ × MS salts, 1% Agar, 2.56 mM MES pH 5.7 supplemented with B vitamins at final concentrations of niacin 4.6 µM, thiamine 3.0 µM, pyridoxin 2.4 µM and myo-inositol 0.6 µM, were transferred onto the chip by plugging the tips into the root inlets. The chip was incubated for 24 hr under standard long-day growth conditions (16 hr high light, 22°C, 70% RH) to allow roots to grow into the observation chambers. Before imaging, the RootChip16 was inserted from below into the central aperture of the carrier and fixed with tape. Pressure lines for control over micromechanical valves and flow lines for perfusion of solutions were connected. To actuate the push-up valves on the chip, a closing pressure of 15 p.s.i (1.03 bar) was applied to the water filled control lines. […]

[2] = design: method as in Kaiser and Hartung, 1981; settings: ref Kaiser and Hartung, 1981; cited from earlier work
Arabidopsis roots [3] = system: Arabidopsis roots; design: method as in Grossmann et al., 2011; settings: ref Grossmann et al., 2011; cited from earlier work
Arabidopsis seeds = assay: Seed germination on ABA plates; assay type: in vivo; settings: all genotypes; plates with 20 µM (±)-ABA
Experimental: (§1) For ABA treatments, 20 mM (±)-ABA was prepared freshly as a stock solution in 50 mM NaOH. Mock treatment plates were made using NaOH to keep pH consistent. Root tips were marked at the time of transfer and images were acquired after 4 days growth on vertical treatment plates. Root growth after transfer were measured using FIJI (http://fiji.sc/). Each experiment included ∼15 roots per genotype and was repeated three independent times with similar results. ABA sensitivity of seed germination rate of Arabidopsis seeds was assayed after sowing on ½ × MS agar medium plates supplemented with 0, 2 or 20 µM (±)-ABA. […] Plates were stratified for 2 days at +4°C after which they were transferred to a growth chamber with standard long day conditions (16 hr high light, 22°C, 70% RH). Seeds were considered germinated at radicle emergence and germination rate was assayed 9 days post sowing in three independent experiments of 100–200 seeds per genotype. The abi1-2, hab1-1, pp2ca-1 triple mutant line was a gift from Pedro Rodriguez ([Rubio et al., 2009]).

Arabidopsis seedlings = assay: Primary root growth of ABACUS1 plant lines on ABA plates; assay type: in vivo
Experimental: as §1

For `O=c1[nH]c(=O)c2nc[nH]c2[nH]1` [Xanthine, xanthine], which “increase in energy transfer of ABACUS1 (positive ratio change), in words” value (ABACUS1-2µ) is on record?
Its value is “did not occur”.

For `CC1=CC(=O)CC(C)(C)[C@@]1(O)/C=C/C(C)=C\C(=O)O` [ABA, abscisic acid], which “accumulation rate of a non-pre-exposed root relative to a root pre-exposed to ABA” value (Arabidopsis roots [1]; first ABA pulse, 5 µM (±)-ABA, ABACUS1-2µ roots) is on record?
The value was “nearly twice”.

What about the “time to saturation of sensor responses” value (Arabidopsis roots [1]; typical experiment, roots) of the same compound?
The value was ~15 min.

What about the pKa [2] of the same compound?
Its pKa is 4.7.

For `OC[C@H]1OC(O)[C@H](O)[C@@H](O)[C@@H]1O` (stereo partly drawn) [Glucose, glucose], which “time to saturation of sensor responses” value (Arabidopsis roots [3]) is on record?
The value was “less than 1 min”.

For `CC1=CC(=O)CC(C)(C)C1(O)/C=C/C(C)=C\C(=O)O` (racemic) [(±)-ABA], which germination (Arabidopsis seeds) is on record?
The germination was 0%.

What about the “root growth of ABACUS1-2µ sensor lines” value (Arabidopsis seedlings; 20 µM exogenous (±)-ABA) of the same compound?
The value was “almost completely inhibited”.

What about the “root growth of ABACUS1-80µ plants” value (Arabidopsis seedlings; 100 µM exogenous (±)-ABA) of the same compound?
The value was “strongly inhibited”.

With `O=S(=O)(NCc1ccccn1)c1ccc(Br)c2ccccc12` [Pyrabactin, pyrabactin] as the compound, how does the “increase in energy transfer of ABACUS1 (positive ratio change), in words” value (ABACUS1-2µ) read?
The value was “induced”.
